Target: T1, SIRT1 (Homo sapiens, UniProt Q96EB6)
T1 sequence (Q96EB6 1-747): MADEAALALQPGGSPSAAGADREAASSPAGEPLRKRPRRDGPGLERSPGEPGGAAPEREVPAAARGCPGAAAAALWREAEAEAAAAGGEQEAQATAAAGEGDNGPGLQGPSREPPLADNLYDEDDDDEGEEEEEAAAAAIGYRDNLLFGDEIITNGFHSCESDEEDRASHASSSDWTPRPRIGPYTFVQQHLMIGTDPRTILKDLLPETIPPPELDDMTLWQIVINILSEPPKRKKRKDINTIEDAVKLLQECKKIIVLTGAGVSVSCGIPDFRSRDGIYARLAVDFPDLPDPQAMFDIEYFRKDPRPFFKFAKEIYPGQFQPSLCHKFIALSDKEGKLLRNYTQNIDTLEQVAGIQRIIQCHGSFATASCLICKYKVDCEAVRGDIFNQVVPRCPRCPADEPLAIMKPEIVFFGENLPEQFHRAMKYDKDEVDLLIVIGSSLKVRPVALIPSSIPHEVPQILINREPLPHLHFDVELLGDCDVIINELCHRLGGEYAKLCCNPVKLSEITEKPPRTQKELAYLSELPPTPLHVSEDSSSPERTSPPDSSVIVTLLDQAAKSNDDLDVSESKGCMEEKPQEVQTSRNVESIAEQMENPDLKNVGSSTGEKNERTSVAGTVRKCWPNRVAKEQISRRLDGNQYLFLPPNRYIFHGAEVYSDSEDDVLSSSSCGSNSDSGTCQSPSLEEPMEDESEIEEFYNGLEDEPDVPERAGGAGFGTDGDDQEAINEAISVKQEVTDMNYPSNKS
Assay: Mass spectrometry based SIRT1 deacetylation (activation) assay
Format: biochemical
Conditions: 0.5 μM peptide substrate, 120 μM βNAD+, 10 nM SIRT1, 25 min at 25° C.; for Emax: 25 min, read-out: % Fold Act. (percent maximum fold activation)

SMILES | EC1.5 | Emax
CN(C)CCNc1cc(C(=O)Nc2ccccc2C(=O)Nc2cccc(S(C)(=O)=O)c2)nc(-c2ccccc2)n1 [Compound 154, 6-(2-(dimethylamino)ethylamino)-N-(2-(3-(methylsulfonyl)phenylcarbamoyl)phenyl)-2-phenylpyrimidine-4-carboxamide] | A (EC1.5≦1 uM) | ≥ 300%
CN(C)CCNc1cc(C(=O)Nc2ccccc2C(=O)Nc2cccnc2)nc(-c2ccccc2)n1 [Compound 155, 6-(2-(dimethylamino)ethylamino)-2-phenyl-N-(2-(pyridin-3-ylcarbamoyl)phenyl)pyrimidine-4-carboxamide] | A (EC1.5≦1 uM) | ≥ 300%
CN(C)CCNc1cc(C(=O)Nc2ccccc2C(=O)Nc2ccncc2)nc(-c2ccccc2)n1 [Compound 156, 6-(2-(dimethylamino)ethylamino)-2-phenyl-N-(2-(pyridin-4-ylcarbamoyl)phenyl)pyrimidine-4-carboxamide] | A (EC1.5≦1 uM) | ≥ 300%
CN(C)CCNc1cc(C(=O)Nc2ccccc2C(=O)Nc2ccc(C(N)=O)cc2)nc(-c2ccccc2)n1 [Compound 157, N-(2-(4-carbamoylphenylcarbamoyl)phenyl)-6-(2-(dimethylamino)ethylamino)-2-phenylpyrimidine-4-carboxamide] | A (EC1.5≦1 uM) | 150 to 300%
CN(C)CCNc1cc(C(=O)Nc2ccccc2C(=O)Nc2ccccn2)nc(-c2ccccc2)n1 [Compound 158, 6-(2-(dimethylamino)ethylamino)-2-phenyl-N-(2-(pyridin-2-ylcarbamoyl)phenyl)pyrimidine-4-carboxamide] | A (EC1.5≦1 uM) | 150 to 300%
CCN(CCN(C)C)c1cc(C(=O)Nc2ccccc2Br)nc(-c2ccccc2)n1 [Compound 159] | B (EC1.5>1 and ≦10 uM) | 150 to 300%
CCN(CCN(C)C)c1cc(C(=O)Nc2ccccc2C(=O)Nc2ccccc2C(N)=O)nc(-c2ccccc2)n1 [Compound 160, N-(2-(2-carbamoylphenylcarbamoyl)phenyl)-6-((2-(dimethylamino)ethyl)(ethyl)amino)-2-phenylpyrimidine-4-carboxamide] | A (EC1.5≦1 uM) | ≥ 300%
CN(C)CCNc1cc(C(=O)Nc2ccccc2C(=O)Nc2cc(Cl)ccc2Cl)nc(-c2ccccc2)n1 [Compound 161, N-(2-(2,5-dichlorophenylcarbamoyl)phenyl)-6-(2-(dimethylamino)ethylamino)-2-phenylpyrimidine-4-carboxamide] | B (EC1.5>1 and ≦10 uM) | 150 to 300%
CN(C)CCNc1cc(C(=O)Nc2ccccc2C(=O)Nc2c(Cl)cccc2Cl)nc(-c2ccccc2)n1 [Compound 162, N-(2-(2,6-dichlorophenylcarbamoyl)phenyl)-6-(2-(dimethylamino)ethylamino)-2-phenylpyrimidine-4-carboxamide] | A (EC1.5≦1 uM) | ≥ 300%
CN(C)CCNc1cc(C(=O)Nc2ccccc2C(=O)Nc2ccccc2S(C)(=O)=O)nc(-c2ccccc2)n1 [Compound 163, 6-(2-(dimethylamino)ethylamino)-N-(2-(2-(methylsulfonyl)phenylcarbamoyl)phenyl)-2-phenylpyrimidine-4-carboxamide] | B (EC1.5>1 and ≦10 uM) | 150 to 300%
CCN(CCN(C)C)c1cc(C(=O)Nc2ccccc2C(=O)NC2CCC2)nc(-c2ccccc2)n1 [Compound 164, N-(2-(cyclobutylcarbamoyl)phenyl)-6-((2-(dimethylamino)ethyl)(ethyl)amino)-2-phenylpyrimidine-4-carboxamide] | A (EC1.5≦1 uM) | ≥ 300%
CCN(CCN(C)C)c1cc(C(=O)Nc2ccccc2C(=O)NC2CCCCC2)nc(-c2ccccc2)n1 [Compound 165, N-(2-(cyclohexylcarbamoyl)phenyl)-6-((2-(dimethylamino)ethyl)(ethyl)amino)-2-phenylpyrimidine-4-carboxamide] | A (EC1.5≦1 uM) | 150 to 300%
CCN(CCN(C)C)c1cc(C(=O)Nc2ccccc2C(=O)NC2CCN(C(=O)OC(C)(C)C)CC2)nc(-c2ccccc2)n1 [Compound 166, tert-butyl 4-(2-(6-((2-(dimethylamino)ethyl)(ethyl)amino)-2-phenylpyrimidine-4-carboxamido)benzamido)piperidine-1-carboxylate] | B (EC1.5>1 and ≦10 uM) | 150 to 300%
CCN(CCN(C)C)c1cc(C(=O)Nc2ccccc2C(=O)NC2CCNCC2)nc(-c2ccccc2)n1 [Compound 167, 6-((2-(dimethylamino)ethyl)(ethyl)amino)-2-phenyl-N-(2-(piperidin-4-ylcarbamoyl)phenyl)pyrimidine-4-carboxamide] | A (EC1.5≦1 uM) | ≥ 300%
CCN(CCN(C)C)c1cc(C(=O)Nc2ccccc2C(=O)NC2CC2)nc(-c2ccccc2)n1 [Compound 168, N-(2-(cyclopropylcarbamoyl)phenyl)-6-((2-(dimethylamino)ethyl)(ethyl)amino)-2-phenylpyrimidine-4-carboxamide] | A (EC1.5≦1 uM) | 150 to 300%
CCN(CCN(C)C)c1cc(C(=O)Nc2ccccc2C(=O)NC2CCCC2)nc(-c2ccccc2)n1 [Compound 169, N-(2-(cyclopentylcarbamoyl)phenyl)-6-((2-(dimethylamino)ethyl)(ethyl)amino)-2-phenylpyrimidine-4-carboxamide] | B (EC1.5>1 and ≦10 uM) | ≥ 300%
CCN(CCN(C)C)c1cc(C(=O)Nc2ccccc2C(=O)N[C@@H]2CCCC[C@@H]2O)nc(-c2ccccc2)n1 [Compound 170, 6-((2-(dimethylamino)ethyl)(ethyl)amino)-N-(2-((1R,2S)-2-hydroxycyclohexylcarbamoyl)phenyl)-2-phenylpyrimidine-4-carboxamide] | A (EC1.5≦1 uM) | ≥ 300%
CCN(CCN(C)C)c1cc(C(=O)Nc2ccccc2C(=O)N[C@@H]2CCCC[C@H]2O)nc(-c2ccccc2)n1 [Compound 171, 6-((2-(dimethylamino)ethyl)(ethyl)amino)-N-(2-((1R,2R)-2-hydroxycyclohexylcarbamoyl)phenyl)-2-phenylpyrimidine-4-carboxamide] | A (EC1.5≦1 uM) | ≥ 300%
CCN(CCN(C)C)c1cc(C(=O)Nc2ccccc2C(=O)NC2CCCN(C(=O)OC(C)(C)C)C2)nc(-c2ccccc2)n1 (centres unmarked) [Compound 172, tert-butyl 3-(2-(6-((2-(dimethylamino)ethyl)(ethyl)amino)-2-phenylpyrimidine-4-carboxamido)benzamido)piperidine-1-carboxylate] | B (EC1.5>1 and ≦10 uM) | 150 to 300%
CCN(CCN(C)C)c1cc(C(=O)Nc2ccccc2C(=O)NC2CCN(C(=O)OC(C)(C)C)C2)nc(-c2ccccc2)n1 (centres unmarked) [Compound 173, tert-butyl 3-(2-(6-((2-(dimethylamino)ethyl)(ethyl)amino)-2-phenylpyrimidine-4-carboxamido)benzamido)pyrrolidine-1-carboxylate] | B (EC1.5>1 and ≦10 uM) | ≥ 300%
CCN(CCN(C)C)c1cc(C(=O)Nc2ccccc2C(=O)NC2CCCNC2)nc(-c2ccccc2)n1 (centres unmarked) [Compound 174, 6-((2-(dimethylamino)ethyl)(ethyl)amino)-2-phenyl-N-(2-(piperidin-3-ylcarbamoyl)phenyl)pyrimidine-4-carboxamide] | B (EC1.5>1 and ≦10 uM) | ≥ 300%
CCN(CCN(C)C)c1cc(C(=O)Nc2ccccc2C(=O)NC2CCNC2)nc(-c2ccccc2)n1 (centres unmarked) [Compound 175, 6-((2-(dimethylamino)ethyl)(ethyl)amino)-2-phenyl-N-(2-(pyrrolidin-3-ylcarbamoyl)phenyl)pyrimidine-4-carboxamide] | A (EC1.5≦1 uM) | ≥ 300%
O=C(Nc1ccccc1C(=O)c1nccs1)c1cc(N2CCOCC2)nc(-c2ccccc2)n1 [Compound 176] | A (EC1.5≦1 uM) | 150 to 300%
CCN(CCN(C)C)c1cc(C(=O)Nc2ccccc2C(=O)c2nccs2)nc(-c2ccccc2)n1 [Compound 177] | A (EC1.5≦1 uM) | ≥ 300%
CN(C)CCN(C)c1cc(C(=O)Nc2ccccc2-c2nnc(-c3ccccc3)s2)nc(-c2ccccc2)n1 [Compound 179] | C (EC1.5>10 uM) | 150 to 300%
